From ChEMBL document CHEMBL5046260, “Anti-inflammatory Dimeric Tetrahydroxanthones from an Endophytic Muyocopron laterale” (J Nat Prod, 2022) come the findings set out here.

Where only a bound is given, the exact number is not on record here.

The test system of experiment [1] is RAW264.7. Briefly: Antiinflammatory activity in mouse RAW 264.7 cells assessed as inhibition of LPS-induced NO production at 10 uM measured after 24 hrs by Griess assay relative to control. On the set-up: scale not given: the % may be the effect or the level left. In kind it is functional. (Griess reagent forms a coloured azo dye with nitrite.)
Experiment [2] concerns RAW264.7. Briefly: Antiinflammatory activity in mouse RAW 264.7 cells assessed as inhibition of LPS-induced NO production measured after 24 hrs by Griess assay. The class given is functional, cell-based. As to conditions: RAW264.7, 24 h.

For the compound `CO[C@H]1CC(O)=C2C(=O)c3c(cc(C)c(-c4c(C)cc5c(c4O)C(=O)C4=C(O)C[C@H](OC)[C@H](O)[C@]4(C)O5)c3O)O[C@@]2(C)[C@H]1O`, the Activity in the experiment on RAW264.7 [1] is 52.7%. The 50% inhibitory concentration (IC50) (usually the concentration that inhibits the measured activity by half) in the experiment on RAW264.7 [2] is > 10 µM.

In the case of `CO[C@H]1CC(=O)O[C@@H]1[C@]1(C)CC(=O)c2c(O)cc(C)c(-c3c(C)cc4c(c3O)C(=O)C3=CC[C@H](OC)[C@H](O)[C@]3(C)O4)c2O1`, the Activity in the experiment with RAW264.7 [1] is given as 33.2%. Besides, in the experiment with RAW264.7 [2], the IC50 was > 10 µM.

Regarding `CO[C@H]1CC(=O)O[C@@H]1[C@]1(C)CC(=O)c2c(cc(C)c(-c3c(C)cc4c(c3O)C(=O)C[C@@](C)([C@H]3OC(=O)C[C@@H]3OC)O4)c2O)O1`, the Activity with RAW264.7 [1] is 5.9%. In addition, in the experiment with RAW264.7 [2], the IC50 is > 10 µM.

On to `CO[C@H]1CC(=O)O[C@@H]1[C@@]1(C)CC(=O)c2c(cc(C)c(-c3c(C)cc4c(c3O)C(=O)C3=C(O)C[C@H](OC)[C@H](O)[C@]3(C)O4)c2O)O1`, for which, in the experiment with RAW264.7 [1], the Activity is 13.2%. For the same compound, the IC50 in the experiment with RAW264.7 [2] is > 10 µM.

`CO[C@H]1CC(=O)O[C@@H]1[C@@]1(C)CC(=O)c2c(cc(C)c(-c3c(C)cc(O)c4c3O[C@](C)([C@H]3OC(=O)C[C@@H]3OC)CC4=O)c2O)O1`: the Activity in the experiment with RAW264.7 [1] was found to be 7.6%. In addition, the IC50 with RAW264.7 [2] was > 10 µM.

Consider `COc1cc(/C=C/C(=O)CC(=O)/C=C/c2ccc(O)c(OC)c2)ccc1O` [CURCUMIN], for which, in the experiment on RAW264.7 [1], the Activity turned out to be 79.2%. Moreover, the concentration for half-maximal inhibition (IC50) in the experiment on RAW264.7 [2] was 2.2 µM.

With `CO[C@H]1CC(=O)O[C@@H]1[C@@]1(C)CC(=O)c2c(cc(C)c(-c3c(C)cc4c(c3O)C(=O)C3=CC[C@H](OC)[C@H](O)[C@]3(C)O4)c2O)O1`, the Activity with RAW264.7 [1] stood at 84.4%. In addition, in the experiment on RAW264.7 [2], the concentration for half-maximal inhibition (IC50) amounted to 5.1 µM.

Take `CO[C@H]1CC(=O)O[C@@H]1[C@@]1(C)CC(=O)c2c(cc(C)c(-c3c(C)cc4c(c3O)C(=O)C[C@@](C)([C@H]3OC(=O)C[C@@H]3OC)O4)c2O)O1`: the Activity in the experiment on RAW264.7 [1] came to 16.2%. Besides, the concentration for half-maximal inhibition (IC50) in the experiment on RAW264.7 [2] is > 10 µM.

For `CO[C@H]1CC(=O)O[C@@H]1[C@@]1(C)CC(=O)c2c(cc(C)c(-c3c(C)cc4c(c3O)C(=O)C[C@](C)([C@H]3OC(=O)C[C@@H]3OC)O4)c2O)O1`, in the experiment on RAW264.7 [1], the Activity came out at 72%. Moreover, the half-maximal inhibitory concentration (IC50) in the experiment on RAW264.7 [2] was 5.2 µM.

As for `CO[C@H]1CC(=O)O[C@@H]1[C@]1(C)CC(=O)c2c(cc(C)c(-c3c(C)cc4c(c3O)C(=O)C3=C(O)C[C@H](OC)[C@H](O)[C@]3(C)O4)c2O)O1`, the Activity with RAW264.7 [1] was determined as 36.6%. Besides, the IC50 with RAW264.7 [2] is > 10 µM.

As to `CO[C@H]1CC=C2C(=O)c3c(cc(C)c(-c4c(C)cc5c(c4O)C(=O)C4=C(O)C[C@H](OC)[C@H](O)[C@]4(C)O5)c3O)O[C@@]2(C)[C@H]1O`, in the experiment on RAW264.7 [1], the Activity worked out at 89.8%. The IC50 with RAW264.7 [2] is 1.3 µM.

Take `CO[C@H]1CC(=O)O[C@@H]1[C@]1(C)CC(=O)c2c(O)cc(C)c(-c3c(C)cc4c(c3O)C(=O)C3=C(O)C[C@H](OC)[C@H](O)[C@]3(C)O4)c2O1`: in the experiment on RAW264.7 [1], the Activity is 52.7%. For the same compound, the IC50 with RAW264.7 [2] is > 10 µM.
